In patent publication US11884647B2, “Compounds and methods for targeting pathogenic blood vessels” (THE REGENTS OF THE UNIVERSITY OF CALIFORNIA, priority 2019, dated 2024):
“Also recorded” adds a separate entry of the source.

Tests used:
[1] = test system: tumor endothelial cells (LL/2 lung cancer tumor); assay: Lung LL2 ex vivo model of tumor angiogenesis; format: cell-based, mouse; details: Mus musculus, Endothelial cell, 48 h, read-out: Cell death
In short: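 Mouse LL2 tumor fragments (~0.5×0.5×0.3 mm) embedded in Matrigel and grown in endothelial growth medium at 37° C until endothelial outgrowth (about 4 days) before drug treatment. About 48 h after drug addition, stained 10 min with fluorescein diacetate/propidium iodide; live (green) and dead (red) cells imaged at 2× with fixed channel settings.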

[2] = biological target: T1, extracellular domain of PLXDC1 (PLXDC1-ECD) (Homo sapiens, UniProt Q8IUK5); assay: Binding to PLXDC1 extracellular domain by suppression of tryptophan fluorescence
T1 construct: the extracellular domain of PLXDC1 (PLXDC1-ECD)
T1 sequence (Q8IUK5 19-426 limits assumed): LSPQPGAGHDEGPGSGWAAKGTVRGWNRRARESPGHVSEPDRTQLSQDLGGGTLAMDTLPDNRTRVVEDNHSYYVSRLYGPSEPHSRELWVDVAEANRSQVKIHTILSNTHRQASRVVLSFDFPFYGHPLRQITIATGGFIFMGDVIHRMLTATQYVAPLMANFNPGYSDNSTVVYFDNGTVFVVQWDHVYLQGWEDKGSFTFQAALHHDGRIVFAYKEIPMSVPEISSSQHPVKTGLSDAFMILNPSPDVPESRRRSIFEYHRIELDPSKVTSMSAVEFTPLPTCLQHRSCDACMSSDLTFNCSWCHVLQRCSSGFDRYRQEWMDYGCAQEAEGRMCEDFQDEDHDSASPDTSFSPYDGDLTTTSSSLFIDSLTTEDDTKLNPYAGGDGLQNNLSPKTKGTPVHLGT
Experimental: The high affinity interaction between compound 346 (Table 3) and the extracellular domain of PLXDC1 (PLXDC1-ECD). […] Tryptophan fluorescence without the compound added is defined as 1. The estimated Kd value is 50 nM.

[3] = test system: PLXDC1; assay: PLXDC1 receptor activation assay (Gfi1b promotor luciferase reporter); format: cell-based; details: treatment 1 day; basal activity of PLXDC1-expressing cells = 1
Description: (§1) FIG. 5A-B show activation of PLXDC1 and PLXDC2 by small molecules. […] All compound treatments were done for 1 day. Basal promotor activity of the PLXDC1-expressing cells is defined as 1.

[4] = test system: PLXDC2; assay: PLXDC2 receptor activation (Gfi1b promotor luciferase reporter); format: cell-based; details: treatment 1 day
Description: as §1

[5] = test system: pathogenic blood vessels of the retina; assay: Ischemia-induced retinopathy in vivo; parameters: species or system mouse; details: subcutaneous injection during return to room air; n=10 retinas
Description: A. Upper graph: Schematic diagram of the experimental design for ischemia-induced retinopathy. The high oxygen environment caused blood vessel loss (vaso-obliteration). In room air, loss of vessels triggered abnormal angiogenesis that generated pathogenic blood vessels on the top of the retina (marked in yellow in D). Treatment was applied during the return to room air by subcutaneous injection. […] Red signal is blood vessel marker. C. The same retinas in B with vaso-obliteration areas marked in white color. […] D. The same retinas in B with pathogenic blood vessels marked in yellow color. […] FIG. 7A includes a schematic diagram of the experimental design for ischemia-induced retinopathy. The high oxygen environment caused blood vessel loss (vaso-obliteration). In room air, loss of vessels triggered abnormal angiogenesis that generated pathogenic blood vessels on the top of the retina (marked in yellow in FIG. 7D). Treatment was applied during the return to room air by subcutaneous injection. […] The same retinas in B with vaso-obliteration areas marked in white color (FIG. 7C). […] The same retinas in B with pathogenic blood vessels marked in yellow color (FIG. 7D).

[6] = test system: tumor / tumor blood vessels; assay: Tumor animal model, bolus IV injection at day 0, tumor growth and morphology; format: in vivo, mouse; details: versus control group
Description: Treatment was done at day 0 by bolus IV injection. […] Treatment was done at day 0. […] Treatment was done at day 0.

[7] = test system: choroidal endothelial cells; assay: Ex vivo model of choroidal angiogenesis (choroidal neovascularization); format: cell-based; details: 10 μM; for effect on new endothelial cells in choroidal angiogenesis: treatment starts after 7 days of angiogenesis, lasts two days, live/dead staining
Experimental: FIG. 2A-E. Comparison of compound 369 with the current anti-angiogenic drug in an ex vivo model of choroidal angiogenesis. A. A schematic diagram of the timeframe of the experiment. […] Treatment lasts for two days before cell death and survival are analyzed. B. Control experiment without any drug treatment at day 7. The white circle in the middle delineates the piece of choroid/RPE that was embedded to initiate neovascularization. C. […] Eylea was added at 10 μM. […] The compound was added at 10 μM. In B-D, green cells are live cells and red cells are dead cells. E. Quantitation of the experiments described in B-D. The amount of new endothelial cells in the untreated control is defined as 100%.

[8] = test system: tumor endothelial cells (CT26.CL25 colon cancer tumor); assay: Colon CT26 ex vivo model of tumor angiogenesis; format: cell-based; details: Mus musculus, CT26, 48 h, read-out: Cell death
In short: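 Explant pieces of CT26 tumor (about 0.075 mm^3) were embedded in Matrigel and grown in endothelial growth medium at 37 °C for about 7 days until endothelial outgrowth appeared, then treated. Cell death was read about 48 h after drug addition by fluorescein diacetate (live) and propidium iodide (dead) staining with red/green imaging.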

For `CCCCCCCCCCCCCCOc1ccc(S(=O)(=O)c2cnc3ccc([S+](C)[O-])cc3c2N2CCC(N3CCC(N4CCN(C)CC4)CC3)CC2)cc1` (stereo not shown) [compound 346, 4-(4-(4-methylpiperazin-1-yl)-[1,4′-bipiperidin]-1′-yl)-6-(methylsulfinyl)-3-((4-(tetradecyloxy)phenyl)sulfonyl)quinoline], the cytotoxicity at 20 µM [1] was 20%, the “suppression of endogenous tryptophan fluorescence of PLXDC1-ECD” value ([2]; different concentrations, fluorescence without compound = 1) was “suppressed the endogenous tryptophan fluorescence of PLXDC1-ECD in a dose-dependent manner” and the Kd ([2]; estimated from dose-dependent suppression of PLXDC1-ECD tryptophan fluorescence) was 50 nM. For the same molecule, the “Gfi1b promotor activity in PLXDC1-expressing cells” value [3] was “highly activated the promotor activity in PLXDC1-expressing cells”, the “Gfi1b promotor activity in PLXDC2-expressing cells” value [4] was “activated the promotor activity in PLXDC2-expressing cells” and the “healthy blood vessels in ischemia-induced retinopathy” value [5] was “improving the amount of healthy blood vessels”. The “pathogenic blood vessels in ischemia-induced retinopathy” value [5] was “specifically suppressed pathogenic blood vessels in vivo without affecting healthy blood vessels; also recorded: highly suppressed pathogenic blood vessels” and the “tumor growth (shrinkage)” value [6] was “shrank the tumors significantly”.

For “Eylea: "The most commonly used drug for choroidal neovascularization, Eylea, can inhibit choroidal endothelial cell growth (as expected of an antiangiogenesis drug)" [reference compound]”, the “effect on new endothelial cells in choroidal angiogenesis” value [7] was “can inhibit choroidal endothelial cell growth”.

`CCCCCCCCCCCCCCOc1ccc(S(=O)(=O)c2cnc3ccc([S+](C)[O-])cc3c2N2CCC(N3CCC(N4CCN(CCO)CC4)CC3)CC2)cc1F` (stereo not shown) [compound 369, 2-(4-(1′-(3-((3-fluoro-4-(tetradecyloxy)phenyl)sulfonyl)-6-(methylsulfinyl)quinolin-4-yl)-[1,4′-bipiperidin]-4-yl)piperazin-1-yl)ethanol] was tested, and the “effect on new endothelial cells in choroidal angiogenesis” value [7] was “can kill the new endothelial cells in choroidal angiogenesis”, the “effect on healthy tissue (choroid and RPE)” value ([7]; two days treatment) was “Choroid and RPE are still alive after the treatment; also recorded: without affecting the healthy tissue” and the cytotoxicity at 20 µM [1] was 20%.

In the case of `O=c1[nH]cc(F)c(=O)[nH]1` [Fluorouracil, reference compound], the “Gfi1b promotor activity in PLXDC1-expressing cells” value [3] is reported as “does not activate this promoter”.

`CCCCCCCCCCCCOc1ccc(S(=O)(=O)c2cnc3ccc([S+](C)[O-])cc3c2N2CCC(N3CCC(N4CCCCC4)CC3)CC2)cc1` (stereo not shown) [compound 342, 4-([1,4′:1′,4″-terpiperidin]-1″-yl)-3-((4-(dodecyloxy)phenyl)sulfonyl)-6-(methylsulfinyl)quinoline] was tested, and the cytotoxicity at 20 µM [1] was 60%, the “Gfi1b promotor activity in PLXDC1-expressing cells” value [3] was “highly activated the promotor activity in PLXDC1-expressing cells” and the “Gfi1b promotor activity in PLXDC2-expressing cells” value [4] was “activated the promotor activity in PLXDC2-expressing cells”.

Molecule `N#Cc1ccc(S(=O)(=O)c2cnc3ccc(OC(F)(F)F)cc3c2N2CCC(N3CCCCC3)CC2)cc1` [compound 54, 4-((4-([1,4′-bipiperidin]-1′-yl)-6-(trifluoromethoxy)quinolin-3-yl)sulfonyl)benzonitrile] has a cytotoxicity at 40 µM [8] of 10% and a cytotoxicity at 40 µM [1] of 50%.

In the case of `CCCCOc1ccc(S(=O)(=O)c2cnc3ccc(S(C)(=O)=O)cc3c2N2CCCN(C)CC2)cc1` [compound 164, 3-((4-butoxyphenyl)sulfonyl)-4-(4-methyl-1,4-diazepan-1-yl)-6-(methylsulfonyl)quinoline], the cytotoxicity at 40 µM [8] is reported as 100% and the cytotoxicity at 40 µM [1] is reported as 95%.

In the case of `CCN(CC)C(=O)c1ccc2ncc(S(=O)(=O)c3ccc(OC)cc3)c(N3CCCN(C)CC3)c2c1` [compound 165, N,N-diethyl-3-((4-methoxyphenyl)sulfonyl)-4-(4-methyl-1,4-diazepan-1-yl)quinoline-6-carboxamide], the cytotoxicity at 40 µM [8] is reported as 10% and the cytotoxicity at 40 µM [1] is reported as 10%.

`COc1ccc(S(=O)(=O)c2cnc3ccc(OC(F)(F)F)cc3c2NN2CCN(C)CC2)cc1` [compound 85, 3-((4-methoxyphenyl)sulfonyl)-N-(4-methylpiperazin-1-yl)-6-(trifluoromethoxy)quinolin-4-amine] showed a cytotoxicity at 40 µM [8] of 50% and a cytotoxicity at 40 µM [1] of 80%.

`CCc1ccc(S(=O)(=O)c2cnc3ccc([N+](=O)[O-])cc3c2N(CC)CC)cc1` [compound 78, N,N-diethyl-3-((4-ethylphenyl)sulfonyl)-6-nitroquinolin-4-amine] was tested, and the cytotoxicity at 40 µM [8] was 0% and the cytotoxicity at 40 µM [1] was 40%.

Molecule `CCOC(=O)c1ccc2ncc(S(=O)(=O)c3ccc(CC)cc3)c(N3CCC(O)CC3)c2c1` [compound 62, ethyl 3-((4-ethylphenyl)sulfonyl)-4-(4-hydroxypiperidin-1-yl)quinoline-6-carboxylate] has a cytotoxicity at 40 µM [8] of 70% and a cytotoxicity at 40 µM [1] of 30%.

`CCCCOc1ccc(S(=O)(=O)c2cnc3ccc([S+](C)[O-])cc3c2N2CCC(N3CCCN(C)CC3)CC2)cc1` (stereo not shown) [compound 241, 3-((4-butoxyphenyl)sulfonyl)-4-(4-(4-methyl-1,4-diazepan-1-yl)piperidin-1-yl)-6-(methylsulfinyl)quinoline] showed a cytotoxicity at 10 µM [8] of 0% and a cytotoxicity at 40 µM [1] of 40%.

In the case of `CCc1ccc(S(=O)(=O)c2cnc3ccc(OC(F)(F)F)cc3c2N2CCC3(CC2)OCCO3)cc1` [compound 52, 8-(3-((4-ethylphenyl)sulfonyl)-6-(trifluoromethoxy)quinolin-4-yl)-1,4-dioxa-8-azaspiro[4.5]decane], the cytotoxicity at 40 µM [8] is reported as 0% and the cytotoxicity at 40 µM [1] is reported as 50%.

`CCCCOc1ccc(S(=O)(=O)c2cnc3ccc(OC(F)(F)F)cc3c2N2CCC(N3CCC(O)CC3)CC2)cc1` [compound 152, 1′-(3-((4-butoxyphenyl)sulfonyl)-6-(trifluoromethoxy)quinolin-4-yl)-[1,4′-bipiperidin]-4-ol] was tested, and the cytotoxicity at 40 µM [8] was 30% and the cytotoxicity at 20 µM [1] was 20%.
